In patent US20150259331A1, “PROTOZOAN PARASITE GROWTH INHIBITORS” (Northeastern University, priority 2014, published 2015):
Read-outs that look alike come from different tables or passages of the source.

Legend:
T. cruzi = T. cruzi growth inhibition; assay type: cell-based, Trypanosoma cruzi
[1] = tested on: T. brucei brucei Lister 427; assay: Trypanosome replication assay; assay type: cell-based, Trypanosoma brucei brucei; settings: 48 h, values ±7%
Description: Then 2 μL of DMSO (control) or different concentrations of drugs prepared from 200× DMSO stocks were added to the cultures. Cells were incubated at 37° C. for 48 h and counted with a hemocytometer. […] All experiments were repeated thrice in independent studies where each dose was administered in duplicate (total n=6). HepG2 Cell Toxicity Assay. The 384 well MTT cytotoxicity assay is a modification of the MTT method described by Ferrari et al. optimized for 384-well throughput, with modifications described below.

[2] = concentration giving 50% inhibition of growth of T brucei brucei Lister 427 cells, read-out: Tbb EC50
[3] = Trypanosoma brucei, concentration giving 50% inhibition of growth of T brucei brucei Lister 427 cells, read-out: Tbb EC50

EC50 [1, 2]	EC50 [1, 3]	Structure (SMILES)	other results
–	–	Cl.O=S(=O)(c1ccc(-c2ccc3ncnc(Nc4ccc(OCc5ccccc5F)c(Cl)c4)c3c2)cc1)N1CCOCC1 [Compound 20i]	T. cruzi % inh at 10 μM (T. cruzi; 10 μM): 10%
0.25 µM	–	Fc1cccc(COc2ccc(Nc3ncnc4ccc(-c5cccc(N6CCNCC6)c5)cc34)cc2Cl)c1 [NEU-711]	EC50 (T. cruzi): 2.2 µM
–	–	Oc1ccc(-c2ccc3ncnc(Nc4ccc(OCc5cccc(F)c5)c(Cl)c4)c3c2)cc1 [Compound 10i, 4-(4-((3-Chloro-4-((3-fluorobenzyl)oxy)phenyl)amino)-quinazolin-6-yl)phenol]	EC50 ([1]; Trypanosoma brucei, read-out: Tbb EC50, concentration giving 50% inhibition of growth of T brucei brucei Lister 427 cells): 6.45 µM
–	4.66 µM	CC(C)(C)NS(=O)(=O)c1ccccc1-c1ccc2ncnc(Nc3ccc(OCc4cccc(F)c4)c(Cl)c3)c2c1 [Compound 10w, N-(tert-Butyl)-2-(4-((3-chloro-4-((3-fluorobenzyl)oxy)-phenyl)amino)quinazolin-6-yl)benzenesulfonamide]	EC50 ([1]; concentration giving 50% inhibition of growth of T brucei brucei Lister 427 cells, listed as NEU-620, read-out: Tbb EC50): 4.7 µM; EC50 (T. cruzi; Trypanosoma cruzi): 6.4 µM
3.85 µM	–	CCNC(=O)c1ccc(-c2ccc3ncnc(Nc4ccc(OCc5cccc(F)c5)c(Cl)c4)c3c2)cc1F [Compound 10c, 4-(4-4-((3-Chloro-4-((3-fluorobenzyl)oxy)phenyl)amino)-quinazolin-6-yl)-N-ethyl-2-fluorobenzamide]	–
–	4.5 µM	O=C(NC1CC1)c1cccc(-c2ccc3ncnc(Nc4ccc(OCc5cccc(F)c5)c(Cl)c4)c3c2)c1 [Compound 10e, 3-(4-((3-Chloro-4-((3-fluorobenzyl)oxy)phenyl)amino)-quinazolin-6-yl)-N-cyclopropylbenzamide]	–
0.43 µM	–	CCCS(=O)(=O)CCNCc1ccc(-c2ccc3ncnc(Nc4ccc(OCc5cccc(F)c5)c(Cl)c4)c3c2)o1 [Compound 3, reference compound]	–
4.21 µM	–	Cc1nnc(-c2cccc(-c3ccc4ncnc(Nc5ccc(OCc6cccc(F)c6)c(Cl)c5)c4c3)c2)o1 [Compound 10d, N-(3-Chloro-4-((3-fluorobenzyl)oxy)phenyl)-6-(3-(5-methyl-1,3,4-oxadiazol-2-1)phenyl)quinazolin-4-amine]	–
0.56 µM	–	CS(=O)(=O)CCNCc1ccc(-c2ccc3ncnc(Nc4ccc(OCc5ccccc5)c(Br)c4)c3c2)o1 [Compound 7, reference compound]	–
–	2.27 µM	Cc1ccc(-c2ccc3ncnc(Nc4ccc(OCc5cccc(F)c5)c(Cl)c4)c3c2)c2ccccc12 [Compound 10b, N-(3-Chloro-4-((3-fluorobenzyl)oxy)phenyl)-6-(4-methylnaphthalen-1-yl)quinazolin-4-amine]	–
1.51 µM	–	CS(=O)(=O)CCN(Cc1ccccc1)Cc1ccc(-c2ccc3ncnc(Nc4ccc(OCc5cccc(F)c5)c(Cl)c4)c3c2)o1 [Compound 9, reference compound]	–
22.6 µM	–	O=c1[nH]cc(-c2ccc3ncnc(Nc4ccc(OCc5cccc(F)c5)c(Cl)c4)c3c2)c(=O)[nH]1 [Compound 10j]	–
–	4.53 µM	Fc1cccc(COc2ccc(Nc3ncnc4ccc(-c5cccc6ncccc56)cc34)cc2Cl)c1 [Compound 10f, N-(3-Chloro-4-((3-fluorobenzyl)oxy)phenyl)-6-(quinolin-5-yl)quinazolin-4-amine]	–
–	5.3 µM	Fc1cccc(COc2ccc(Nc3ncnc4ccc(-c5ccccc5Oc5ccccc5)cc34)cc2Cl)c1 [Compound 10g, N-(3-Chloro-4-((3-fluorobenzyl)oxy)phenyl)-6-(2-phenoxyphenyl)quinazolin-4-amine]	–
0.48 µM	–	CC(C)S(=O)(=O)CCNCc1ccc(-c2ccc3ncnc(Nc4ccc(OCc5cccc(F)c5)c(Cl)c4)c3c2)o1 [Compound 4, reference compound]	–

Structure (SMILES)	EC50 [1, 2]	EC50 [1, 3]	other results
Fc1cccc(COc2ccc(Nc3ncnc4ccc(-c5cc6ccccc6s5)cc34)cc2Cl)c1 [Compound 10h, 6-(Benzo[b]thiopen-2-yl)-N-(3-chloro-4-((3-fluorobenzyl)-oxy)phenyl)quinazolin-4-amine]	5.98 µM	–	–
